Measured values taken from PubChem BioAssay (NCI).
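Protocol summary: plate cells (96-well), add compound at 5 concentrations, incubate 48 h, interpolate endpoints linearly. GI50: concentration for 50% inhibition of growth. At the TGI there is no net growth.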

What was measured:
Test in all cases: inhibition of tumour cell growth, NCI panel, 48 h
[1] = test system: RXF 393 renal
[2] = test system: HT29 colon
[3] = test system: HS 578T breast
[4] = test system: IGROV1 ovarian
[5] = test system: SN12C renal
[6] = test system: MDA-MB-231 breast
[7] = test system: PC-3 prostate
[8] = test system: TK-10 renal
[9] = test system: A498 renal
[10] = test system: RPMI-8226 leukemia

| SMILES | GI50 [1] [µM] | TGI [1] [µM] | GI50 [2] [µM] | TGI [2] [µM] | GI50 [3] [µM] | TGI [3] [µM] | GI50 [4] [µM] | TGI [4] [µM] | GI50 [5] [µM] | TGI [5] [µM] | GI50 [6] [µM] | TGI [6] [µM] | GI50 [7] [µM] | TGI [7] [µM] | GI50 [8] [µM] | TGI [8] [µM] | GI50 [9] [µM] | TGI [9] [µM] | TGI [10] [µM] | GI50 [10] [µM] |
| --- | --- | --- | --- | --- | --- | --- | --- | --- | --- | --- | --- | --- | --- | --- | --- | --- | --- | --- | --- | --- |
| COc1cc(-c2nn(-c3cccc(NC(=O)CCN4CCN(Cc5ccccc5)CC4)c3)cc2-c2ccncc2)ccc1Cl | 0.705 | 2.28 | 0.314 | 1.55 | 1.02 | 4.34 | 0.954 | 7.88 | 2.13 | 20.3 | 1.64 | 3.71 | 0.709 | 11.6 | 2.93 | 12.2 | 1.41 | 6.71 |  |  |
| CN=C1OC2(c3ccccc3)C3=C(OC(=NC)N2C)C(=O)OC3(c2ccccc2)N1C (stereo unspecified) |  |  |  | > 100 |  | > 100 |  | > 100 |  | > 100 |  | > 100 |  | > 100 |  | > 100 |  | > 100 |  |  |
| CNNC(=NS(=O)(=O)c1cc(C#N)c(NNC)cc1S)NNC |  | > 10 |  | > 10 |  | > 10 |  | > 10 |  | > 10 |  |  |  | > 10 |  | > 10 |  | > 10 | > 10 |  |
| Cc1ccccc1-n1c(N)c(-c2nc3ccccc3[nH]2)sc1=S |  | 62.4 |  | 36.9 |  |  |  | 57 |  | 56.9 |  |  |  |  |  | 85.8 |  | > 100 | 62.2 |  |
| Cc1ccc(NC(=O)C(=O)C(C(=O)/C=C/c2ccccc2)C2OC(=O)c3ccccc32)c(C)c1 (stereo unspecified) |  | > 100 |  | > 100 |  |  |  | > 100 |  | > 100 |  |  |  |  |  | > 100 |  | > 100 | > 100 |  |
| O=C(O)CCNS(=O)(=O)c1ccc([N+](=O)[O-])cc1 |  | > 100 |  | > 100 |  |  |  | > 100 |  | > 100 |  |  |  |  |  | > 100 |  | > 100 | > 100 |  |
| N#CC1(C#N)C(c2ccccc2)C=CC12OCCCO2 (stereo unspecified) |  | 49.2 |  | > 100 |  |  |  | > 100 |  | > 100 |  |  |  |  |  | > 100 |  | > 100 | 91.7 |  |
| C[n+]1c2ccccc2nc2c(N)cc(N)cc21 |  |  | 15.3 | > 100 | 3.63 | 20.6 | 14.4 | 57 | 2.55 | 14 | 21.7 | > 100 | 21.3 | > 100 | 64.9 | > 100 | 69.2 | > 100 | 33.9 | 4.54 |
